# Data: patent US9421208B2, “Methods for the treatment of solid tumors” (Pharmacyclics LLC, priority 2013, dated 2016)
# Entries after “also recorded” stand apart in the source; their conditions may differ.
# Test system: lung tumors in Grg1 transgenic mice
# Test: Tumor development in Grg1 transgenic mouse model of non-small cell lung cancer
# Format: in vivo
# Conditions: for tumors visible on whole lung lobes: 3 month mice after 4 weeks of treatment (FIG. 8); for average number of surface tumors per mouse: abexinostat 12 mg/kg BID i.p., ibrutinib ~22 mg/kg/day in drinking water; for tumor histology in lung tissue sections: 6 month mice after 4 weeks of treatment; for tumors visible on whole left lung lobes: 6 month mice after 4 weeks of treatment (FIG. 7); for average number of large tumors (over 1 mm in diameter) per mouse: 6 month samples, tissue sections of left lung lobe
# Description: The aim of the experiment is to evaluate the effect of two drugs on tumor development in a mouse model of non-small cell lung cancer.
# Grg1 transgenic mice were used to evaluate the drugs. Grg1 transgenic mice overexpress the Groucho-related gene 1 (Grg1). The mice develop lung tumors that resemble human non-small cell lung cancer. Tumors initiate at 1 month of age and progress to invasive adenocarcinoma by 8 months of age. The drugs were administered to 2 month-old mice or to 5 month-old mice, and mice were treated for 4 weeks. The former group is referred to as the 3 month samples and the latter as the 6 month samples.
# Mice were bred to generate double transgenic (Grg1/Cre recombinase) mice on a CD1 background. Four groups of female double transgenic mice were established:
# At least 8 mice in each group were treated at 2 months old and 8 mice in each group were treated at 5 months old. Treatments lasted 4 weeks, and mice were sacrificed at 3 months and 6 months. Therefore samples are referred to as 3 month samples or 6 month samples.
# Abexinostat was administered by intraperitoneal (i.p.) injection, twice per day for five days each week. Mice were weighed and injected with 6 μl per gram body weight of a 1 mg/ml solution. The dosage was 12 mg/kg BID.
# Mice were treated for 4 weeks. After treatment, mice were euthanized and lung tissue was examined.
# For quantitation of tumors, the total visible tumors on the lung surface were counted using a dissecting microscope. In addition, the left lung lobe was fixed in 4% PFA, paraffin-embedded and 5 μm sections were taken for 100 μm at two levels. The first level began 30 μm below the lung surface and the second level began 130 μm below the lung surface. Alternate slides were H&E stained, and tumors were detected and counted using a dissecting microscope. Tumor diameter was measured using an inverted microscope and reticule.
# [1] = 3 month samples: treated 4 weeks from 2 months
# [2] = 6 month samples: treated 4 weeks from 5 months
SMILES,tumors visible on whole lung lobes,average number of surface tumors per mouse [1],tumor histology in lung tissue sections,tumors visible on whole left lung lobes,average number of large tumors (over 1 mm in diameter) per mouse,average number of surface tumors per mouse [2],tumor diameter in 6 month sections (6 month sections (FIG. 9))
"CN(C)Cc1c(C(=O)NCCOc2ccc(C(=O)NO)cc2)oc2ccccc12 [Abexinostat, 3-[(dimethylamino)methyl]-N-{2-[4-(hydroxycarbamoyl)phenoxy]ethyl}-1-benzofuran-2-carboxamide]",one small tumor is visible,3.0,"high number of apoptotic cells; also recorded: lymphocyte infiltration, necrosis and large areas with apoptotic cells",medium and small tumors are visible,0.5,4.6,–
"C=CC(=O)N1CCC[C@@H](n2nc(-c3ccc(Oc4ccccc4)cc3)c3c(N)ncnc32)C1 [Ibrutinib, (R)-1-(3-(4-amino-3-(4-phenoxyphenyl)-1H-pyrazolo[3,4-d]pyrimidin-1-yl)piperidin-1-yl)prop-2-en-1-one]",one small tumor is visible,2.6,lack the high number of apoptotic macrophages; also recorded: less tumor necrosis than the control samples; also recorded: lymphocyte infiltration but not the apoptotic macrophages seen in the control and in Abexinostat-treated mice,medium and small tumors are visible,0.5,7.6,"no small tumors in Ib-treated sections, just one large tumor"
